Results: patent US20230047825A1, “ANTIMICROBIAL PEPTIDES” (priority 2019, published 2023)
≈ marks a conversion by molar mass, not a printed value. Where two headings read alike, the source gives them in different places. Marks after values point to notes of the source that are not given here. Where a SMILES comes first, the peptide text is derived from it.

Experiments:
[1] = test system: HEK293; assay: Cytotoxicity assay (XTT); type: cell-based, human
How it was run: (§1)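 Cells seeded 24 h in EMEM with 10% FBS and NEAA at 37 °C, 10% CO2, then medium replaced with peptide dilutions. After a further 24 h exposure, viability read by XTT tetrazolium staining.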

[2] = test system: human red blood cells; assay: Haemolysis assay; settings: red cells of human, 1 h
How it was run: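 Peptide titrations in PBS incubated with fresh human red blood cells for 1 h at 37 C; supernatant OD550 read after removing intact cells. % haemolysis scaled between PBS-only (0%) and 0.1% Triton-X-100 (100%) controls; mean and SE of three biological replicates.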

[3] = test system: EMR Staphylococcus aureus-16 (EMRSA-16); type: cell-based; settings: EMRSA16
[4] = test system: HeLa; assay: Cytotoxicity assay (XTT); type: cell-based, human; design: Toxicity HeLa: unit not given beside the values
How it was run: as §1

[5] = test system: VRE12201; assay: Antibacterial activity assay (broth microdilution MIC); type: cell-based, Enterococcus faecalis; settings: medium and unit inferred
Text: Antibacterial activity assay.
The bacterial strains used are as in the above examples. A table of strains is provided below to aid understanding.

[6] = test system: Acinetobacter baumannii ATCC 17978; type: cell-based; settings: in µg/mL; for MIC, Stability in serum (MH): Ab17978
[7] = test system: EMR Staphylococcus aureus-15 (EMRSA-15); type: cell-based
[8] = test system: Pseudomonas aeruginosa NCTC 13437; assay: Antibacterial activity assay (broth microdilution MIC); type: cell-based; settings: PA13437, in µg/mL
[9] = test system: Acinetobacter baumannii AYE; type: cell-based
[10] = test system: Klebsiella pneumoniae NCTC 13368; type: cell-based; settings: KP13368, in µg/mL
[11] = test system: Klebsiella pneumoniae M6; type: cell-based
[12] = test system: Escherichia coli NCTC 12923; type: cell-based
[13] = test system: VR Enterococcus faecium NCTC 12204; assay: Antibacterial activity assay (broth microdilution MIC); type: cell-based; settings: VRE12204, in µg/mL
[14] = test system: MS Staphylococcus aureus ATCC 9144; type: cell-based; settings: MSSA9144
[15] = test system: VS Enterococcus faecalis NCTC 775; assay: Antibacterial activity assay (broth microdilution MIC); type: cell-based
[16] = medium and unit not given, in µg/mL
[17] = untitled table, medium/unit not given, values match RPMI of Table 2
[18] = untitled table, medium/unit not given, values match RPMI of Table 2, in µg/mL

## CC(C)C[C@H](NC(=O)[C@H](Cc1ccc(O)cc1)NC(=O)[C@H](Cc1c[nH]cn1)NC(=O)[C@@H](NC(=O)[C@H](CC(C)C)NC(=O)[C@H](C)NC(=O)[C@H](C)NC(=O)[C@H](CCCNC(=N)N)NC(=O)CNC(=O)[C@@H](NC(=O)[C@H](Cc1c[nH]cn1)NC(=O)[C@H](CCCNC(=N)N)NC(=O)CNC(=O)[C@@H](NC(=O)[C@H](Cc1c[nH]cn1)NC(=O)[C@H](C)NC(=O)[C@H](C)NC(=O)[C@H](CCCNC(=N)N)NC(=O)[C@H](CCCNC(=N)N)NC(=O)[C@H](Cc1ccccc1)NC(=O)[C@H](Cc1ccccc1)NC(=O)[C@H](CO)NC(=O)CNC(=O)[C@H](Cc1c[nH]c2ccccc12)NC(=O)CN)C(C)C)C(C)C)[C@@H](C)O)C(N)=O [Pleurocidin-KR] (H-GWGSFFRRAAHVGRHVGRAALTHYL-NH2; N-terminus assumed)
[1]; unit not given
  Toxicity HEK293: 40.1 ± 4.1
[1]; value printed in parentheses
  Toxicity HEK293 (EC50), Peptide concentration: (40.1 ± 4.1) μg/ml
[2]
  Toxicity HC50, Peptide concentration: >400 µg/mL
[3]; [16]
  MIC on initial panels: 4
[3]; untitled table, medium/unit inferred, values match RPMI of Table 2
  MIC: 8 µg/mL (≈ 2.83 µM)
[4]; unit not given
  Toxicity HeLa: 30.7 ± 2.6
[4]; value printed in parentheses
  Toxicity HeLa (EC50), Peptide concentration: (30.7 ± 2.6) μg/ml
[5]
  MIC on initial panels: 32 µg/mL (≈ 11.3 µM)
[6]; AB17978, medium and unit not given
  MIC on initial panels: 1
[6]; AB17978, untitled table, medium/unit not given, values match RPMI of Table 2
  MIC: 8
[6]; No serum
  MIC, Stability in serum (MH): 2
[6]; Serum (10% fetal bovine serum)
  MIC, Stability in serum (MH): 2
[7]; EMR -15 (EMRSA-15)
  MIC, Peptide concentration: 4 (4) μg/ml
[7]; EMRSA15, medium and unit inferred
  MIC on initial panels: 4 µg/mL (≈ 1.42 µM)
[7]; EMRSA15, untitled table, medium/unit inferred, values match RPMI of Table 2
  MIC: 4 µg/mL (≈ 1.42 µM)
[8]; No serum
  MIC, Stability in serum (MH): 4
[8]; Serum (10% fetal bovine serum)
  MIC, Stability in serum (MH): 32*
[8]; medium and unit not given
  MIC on initial panels: 8
[8]; [17]
  MIC: >32
[9]; AYE, No serum
  MIC, Stability in serum (MH): 2 µg/mL (≈ 0.709 µM)
[9]; AYE, Serum (10% fetal bovine serum)
  MIC, Stability in serum (MH): 2 µg/mL (≈ 0.709 µM)
[9]; AYE, medium and unit not given, in µg/mL
  MIC on initial panels: 1-2
[9]; AYE, untitled table, medium/unit not given, values match RPMI of Table 2, in µg/mL
  MIC: 8-16
[9]; RPMI (value in parentheses)
  MIC, Peptide concentration: 8 to 16 µg/mL
[10]; No serum
  MIC, Stability in serum (MH): 2
[10]; Serum (10% fetal bovine serum)
  MIC, Stability in serum (MH): 4
[10]; medium and unit not given
  MIC on initial panels: 2-4
[10]; [17]
  MIC: 32
[11]
  MIC, Peptide concentration: 2 µg/mL (≈ 0.709 µM)
[11]; No serum
  MIC, Stability in serum (MH): 4 µg/mL (≈ 1.42 µM)
[11]; Serum (10% fetal bovine serum)
  MIC, Stability in serum (MH): 2 µg/mL (≈ 0.709 µM)
[11]; [16]
  MIC on initial panels: 2
[11]; [18]
  MIC: 32
[12]; EC12923, No serum
  MIC, Stability in serum (MH): 2 µg/mL (≈ 0.709 µM)
[12]; EC12923, Serum (10% fetal bovine serum)
  MIC, Stability in serum (MH): 1 µg/mL (≈ 0.354 µM)
[12]; EC12923, medium and unit not given, in µg/mL
  MIC on initial panels: 1
[12]; EC12923, untitled table, medium/unit not given, values match RPMI of Table 2, in µg/mL
  MIC: 16
[12]; NCTC 12923
  MIC, Peptide concentration: 16 µg/mL (≈ 5.67 µM)
[13]; medium and unit not given
  MIC on initial panels: 4
[13]; [17]
  MIC: 16
[14]; medium and unit inferred
  MIC on initial panels: 2 µg/mL (≈ 0.709 µM)
[14]; [18]
  MIC: 4
[15]; Mueller-Hinton broth
  MIC, Peptide concentration: 16 (NG) μg/ml
[15]; VSE775, medium and unit not given, in µg/mL
  MIC on initial panels: 16
